Measured values taken from ChEMBL document CHEMBL1909046, “DrugMatrix in vitro pharmacology data”.

Experiments:
[1] = DRUGMATRIX: Calcium Channel Type L, Dihydropyridine radioligand binding (ligand: [3H] Nitrendipine); format: cell membranes, Rattus norvegicus, Wistar, Cerebral cortex, Membrane; details: Not Active = under 50% inhibition at 10 µM
Substance-P receptor = Substance-P receptor (Homo sapiens, UniProt P25103); format: cell membranes, Membrane; details: cho; note: in other assays of this panel Not Active means under 50% inhibition at 10 µM
[2] = target: T1, C-C chemokine receptor type 4 (Homo sapiens, UniProt P51679); format: cell membranes, Membrane; details: chem-1; note: in other assays of this panel Not Active means under 50% inhibition at 10 µM
T1 sequence (P51679 whole entry): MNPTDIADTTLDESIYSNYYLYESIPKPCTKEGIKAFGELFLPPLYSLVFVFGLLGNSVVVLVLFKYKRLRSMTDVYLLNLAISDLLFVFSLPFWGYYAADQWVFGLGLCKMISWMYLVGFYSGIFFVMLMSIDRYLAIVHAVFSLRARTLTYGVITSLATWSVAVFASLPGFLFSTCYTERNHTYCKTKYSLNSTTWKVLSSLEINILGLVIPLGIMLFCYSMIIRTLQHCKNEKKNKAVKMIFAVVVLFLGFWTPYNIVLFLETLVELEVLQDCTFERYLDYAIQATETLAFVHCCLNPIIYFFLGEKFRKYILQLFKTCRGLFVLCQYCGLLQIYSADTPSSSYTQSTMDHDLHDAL

[3] = DRUGMATRIX: Glutamate, NMDA, Phencyclidine radioligand binding (ligand: [3H] TCP); format: cell membranes, Rattus norvegicus, Wistar, Cerebral cortex, Membrane; details: Not Active = under 50% inhibition at 10 µM
[4] = DRUGMATRIX: Leukotriene, BLT (LTB4) radioligand binding (ligand: [3H]LTB4); format: cell membranes, Membrane; details: u-937; Not Active = under 50% inhibition at 10 µM
[5] = target: T2, Cysteinyl leukotriene receptor 1 (Homo sapiens, UniProt Q9Y271); format: cell membranes, Membrane; details: cho-k1; note: in other assays of this panel Not Active means under 50% inhibition at 10 µM
T2 sequence (Q9Y271 whole entry): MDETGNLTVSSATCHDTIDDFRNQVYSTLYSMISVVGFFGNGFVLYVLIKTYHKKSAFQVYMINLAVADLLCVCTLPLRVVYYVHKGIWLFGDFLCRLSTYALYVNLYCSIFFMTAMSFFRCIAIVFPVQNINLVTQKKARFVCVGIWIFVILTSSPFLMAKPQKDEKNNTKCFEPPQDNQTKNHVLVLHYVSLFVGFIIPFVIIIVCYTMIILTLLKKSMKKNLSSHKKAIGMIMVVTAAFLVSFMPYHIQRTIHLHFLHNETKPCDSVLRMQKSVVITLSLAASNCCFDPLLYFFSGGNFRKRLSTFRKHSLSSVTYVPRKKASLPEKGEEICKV

Melanocortin receptor 3 = Melanocortin receptor 3 (Homo sapiens, UniProt P41968); format: cell membranes, Membrane; details: hek293; note: in other assays of this panel Not Active means under 50% inhibition at 10 µM
[6] = target: T3, Neuropeptide Y receptor type 2 (Homo sapiens, UniProt P49146); format: cell membranes, Membrane; details: kan-ts; note: in other assays of this panel Not Active means under 50% inhibition at 10 µM
T3 sequence (P49146 whole entry): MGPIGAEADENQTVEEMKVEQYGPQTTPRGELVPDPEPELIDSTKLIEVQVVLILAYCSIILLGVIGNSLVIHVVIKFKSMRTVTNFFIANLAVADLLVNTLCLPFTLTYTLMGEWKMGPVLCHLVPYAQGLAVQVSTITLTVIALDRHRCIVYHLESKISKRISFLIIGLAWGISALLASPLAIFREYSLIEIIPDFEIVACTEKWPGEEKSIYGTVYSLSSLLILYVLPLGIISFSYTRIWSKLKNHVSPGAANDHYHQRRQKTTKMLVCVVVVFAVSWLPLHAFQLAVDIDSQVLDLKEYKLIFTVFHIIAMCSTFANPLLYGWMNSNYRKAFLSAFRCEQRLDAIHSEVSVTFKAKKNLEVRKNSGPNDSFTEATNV

Cytochrome P450 2E1 = Cytochrome P450 2E1 (Homo sapiens, UniProt P05181); details: bti-tn-5b1-4; note: in other assays of this panel Not Active means under 50% inhibition at 10 µM
[7] = target: Voltage-gated inwardly rectifying potassium channel KCNH2 (Homo sapiens, UniProt Q12809); details: hek293; note: in other assays of this panel Not Active means under 50% inhibition at 10 µM
Chain of Voltage-gated inwardly rectifying potassium channel KCNH2 (Q12809 whole entry): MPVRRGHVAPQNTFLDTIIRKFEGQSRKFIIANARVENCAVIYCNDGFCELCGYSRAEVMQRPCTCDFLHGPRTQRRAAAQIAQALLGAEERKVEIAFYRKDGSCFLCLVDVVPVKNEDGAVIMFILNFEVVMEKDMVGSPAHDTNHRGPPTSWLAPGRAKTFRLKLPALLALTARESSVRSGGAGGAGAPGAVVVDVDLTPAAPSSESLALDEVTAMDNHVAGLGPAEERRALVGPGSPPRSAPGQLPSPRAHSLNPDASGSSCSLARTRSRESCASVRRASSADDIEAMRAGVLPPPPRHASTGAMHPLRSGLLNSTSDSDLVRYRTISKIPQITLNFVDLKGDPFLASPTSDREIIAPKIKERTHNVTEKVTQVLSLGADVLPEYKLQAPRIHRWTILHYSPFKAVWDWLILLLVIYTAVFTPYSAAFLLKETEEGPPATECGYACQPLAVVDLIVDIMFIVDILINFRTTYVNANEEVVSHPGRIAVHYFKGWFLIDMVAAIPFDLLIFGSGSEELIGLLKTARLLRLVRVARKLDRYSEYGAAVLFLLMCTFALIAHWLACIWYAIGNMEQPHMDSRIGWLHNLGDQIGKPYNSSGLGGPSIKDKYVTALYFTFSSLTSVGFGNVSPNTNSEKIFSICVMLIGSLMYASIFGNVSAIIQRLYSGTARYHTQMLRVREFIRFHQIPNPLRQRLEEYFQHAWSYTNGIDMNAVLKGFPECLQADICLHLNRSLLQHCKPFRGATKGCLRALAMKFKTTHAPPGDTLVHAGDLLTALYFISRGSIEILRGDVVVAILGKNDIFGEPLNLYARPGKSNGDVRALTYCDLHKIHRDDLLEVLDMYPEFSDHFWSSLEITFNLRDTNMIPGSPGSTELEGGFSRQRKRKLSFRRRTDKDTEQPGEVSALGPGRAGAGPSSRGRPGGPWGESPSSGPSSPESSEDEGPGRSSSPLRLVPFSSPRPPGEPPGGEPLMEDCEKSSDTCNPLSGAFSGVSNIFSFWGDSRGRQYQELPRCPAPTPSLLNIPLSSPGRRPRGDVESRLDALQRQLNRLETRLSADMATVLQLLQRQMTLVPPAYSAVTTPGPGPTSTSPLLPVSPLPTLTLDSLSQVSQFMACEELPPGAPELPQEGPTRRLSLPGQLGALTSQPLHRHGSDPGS

Chain of Substance-P receptor (P25103 whole entry): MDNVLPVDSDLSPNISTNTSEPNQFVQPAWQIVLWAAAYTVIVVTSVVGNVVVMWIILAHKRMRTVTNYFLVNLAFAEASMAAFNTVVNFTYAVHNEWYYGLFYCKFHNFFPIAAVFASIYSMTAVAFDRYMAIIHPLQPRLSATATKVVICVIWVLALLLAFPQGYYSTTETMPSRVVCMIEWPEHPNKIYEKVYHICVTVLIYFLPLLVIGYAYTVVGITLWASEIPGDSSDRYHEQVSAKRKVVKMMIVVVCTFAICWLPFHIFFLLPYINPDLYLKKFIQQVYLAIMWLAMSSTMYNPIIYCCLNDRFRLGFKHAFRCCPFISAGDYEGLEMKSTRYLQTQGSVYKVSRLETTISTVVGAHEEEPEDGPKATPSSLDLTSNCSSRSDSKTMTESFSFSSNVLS
Chain of Cytochrome P450 2E1 (P05181 whole entry): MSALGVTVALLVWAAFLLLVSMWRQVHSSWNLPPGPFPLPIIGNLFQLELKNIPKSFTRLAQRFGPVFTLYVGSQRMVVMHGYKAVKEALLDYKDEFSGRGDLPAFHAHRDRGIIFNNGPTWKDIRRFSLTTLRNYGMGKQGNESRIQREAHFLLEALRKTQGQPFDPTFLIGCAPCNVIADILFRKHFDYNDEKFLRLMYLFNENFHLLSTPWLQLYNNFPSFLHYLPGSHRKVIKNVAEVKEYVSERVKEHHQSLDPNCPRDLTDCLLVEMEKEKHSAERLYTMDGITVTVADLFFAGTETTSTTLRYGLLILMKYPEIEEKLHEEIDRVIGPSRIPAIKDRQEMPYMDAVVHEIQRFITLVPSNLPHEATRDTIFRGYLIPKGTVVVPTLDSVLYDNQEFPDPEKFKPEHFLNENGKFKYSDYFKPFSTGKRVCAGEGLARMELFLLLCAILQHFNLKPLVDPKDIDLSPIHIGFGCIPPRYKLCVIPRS
Chain of Melanocortin receptor 3 (P41968 whole entry): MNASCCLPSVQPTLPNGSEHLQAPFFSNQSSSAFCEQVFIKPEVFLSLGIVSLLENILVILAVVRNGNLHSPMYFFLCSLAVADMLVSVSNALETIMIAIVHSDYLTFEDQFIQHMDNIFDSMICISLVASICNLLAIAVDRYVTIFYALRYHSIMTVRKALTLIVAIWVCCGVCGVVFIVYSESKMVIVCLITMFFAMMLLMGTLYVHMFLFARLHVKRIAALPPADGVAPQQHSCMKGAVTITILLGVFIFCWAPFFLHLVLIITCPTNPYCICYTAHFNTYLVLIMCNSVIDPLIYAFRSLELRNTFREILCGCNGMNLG

CN[C@@H]1[C@H](O)[C@H](NC)[C@H]2O[C@@]3(O)C(=O)C[C@@H](C)O[C@H]3O[C@@H]2[C@H]1O [SPECTINOMYCIN]
Not Active: IC50 [1] | Ki [1] | IC50 (Substance-P receptor) | IC50 [2] | IC50 [3] | Ki [3] | IC50 [4] | Ki [4] | IC50 [5] | IC50 (Melanocortin receptor 3) | IC50 [6] | IC50 (Cytochrome P450 2E1) | Ki (Cytochrome P450 2E1) | IC50 [7] | Ki [7]

COc1cc(N)nc2[nH]c(-c3ccc(F)cc3)c(-c3ccncc3)c12
Not Active: IC50 [1] | Ki [1] | IC50 (Substance-P receptor) | IC50 [2] | IC50 [3] | Ki [3] | IC50 [4] | Ki [4] | IC50 [5] | IC50 (Melanocortin receptor 3) | IC50 [6] | IC50 (Cytochrome P450 2E1) | Ki (Cytochrome P450 2E1) | IC50 [7] | Ki [7]

CN(CCOc1ccc(CC2SC(=O)NC2=O)cc1)c1ccccn1 (stereo not given) [ROSIGLITAZONE]
Not Active: IC50 [1] | Ki [1] | IC50 (Substance-P receptor) | IC50 [2] | IC50 [3] | Ki [3] | IC50 [4] | Ki [4] | IC50 [5] | IC50 (Melanocortin receptor 3) | IC50 [6] | IC50 (Cytochrome P450 2E1) | Ki (Cytochrome P450 2E1) | IC50 [7] | Ki [7]

C=C(C)[C@H]1Cc2c(ccc3c2O[C@@H]2COc4cc(OC)c(OC)cc4[C@@H]2C3=O)O1 [ROTENONE]
Not Active: IC50 [1] | Ki [1] | IC50 (Substance-P receptor) | IC50 [2] | IC50 [3] | Ki [3] | IC50 [4] | Ki [4] | IC50 [5] | IC50 (Melanocortin receptor 3) | IC50 [6] | IC50 (Cytochrome P450 2E1) | Ki (Cytochrome P450 2E1) | IC50 [7] | Ki [7]

O=C(O)C(Cl)(Cl)Cl [TRICHLOROACETIC ACID]
Not Active: IC50 [1] | Ki [1] | IC50 (Substance-P receptor) | IC50 [2] | IC50 [3] | Ki [3] | IC50 [4] | Ki [4] | IC50 [5] | IC50 (Melanocortin receptor 3) | IC50 [6] | IC50 (Cytochrome P450 2E1) | Ki (Cytochrome P450 2E1) | IC50 [7] | Ki [7]

CNS(=O)(=O)Cc1ccc2[nH]cc(CCN(C)C)c2c1
Not Active: IC50 [1] | Ki [1] | IC50 (Substance-P receptor) | IC50 [2] | IC50 [3] | Ki [3] | IC50 [4] | Ki [4] | IC50 [5] | IC50 (Melanocortin receptor 3) | IC50 [6] | IC50 (Cytochrome P450 2E1) | Ki (Cytochrome P450 2E1) | IC50 [7] | Ki [7]

Nc1nc2c(c(=O)[nH]1)N(C=O)C(CNc1ccc(C(=O)N[C@@H](CCC(=O)O)C(=O)O)cc1)CN2 (stereo not given in full) [LEUCOVORIN]
Not Active: IC50 [1] | Ki [1] | IC50 (Substance-P receptor) | IC50 [2] | IC50 [3] | Ki [3] | IC50 [4] | Ki [4] | IC50 [5] | IC50 (Melanocortin receptor 3) | IC50 [6] | IC50 (Cytochrome P450 2E1) | Ki (Cytochrome P450 2E1) | IC50 [7] | Ki [7]

C#CCN(C)[C@H](C)Cc1ccccc1 [SELEGILINE]
Not Active: IC50 [1] | Ki [1] | IC50 (Substance-P receptor) | IC50 [2] | IC50 [3] | Ki [3] | IC50 [4] | Ki [4] | IC50 [5] | IC50 (Melanocortin receptor 3) | IC50 [6] | IC50 (Cytochrome P450 2E1) | Ki (Cytochrome P450 2E1) | IC50 [7] | Ki [7]

STANNOUS FLUORIDE
Not Active: IC50 [1] | Ki [1] | IC50 (Substance-P receptor) | Ki (Substance-P receptor) | IC50 [2] | Ki [2] | IC50 [3] | Ki [3] | IC50 [4] | Ki [4] | IC50 [5] | Ki [5] | IC50 (Melanocortin receptor 3) | Ki (Melanocortin receptor 3) | IC50 [6] | Ki [6] | IC50 (Cytochrome P450 2E1) | Ki (Cytochrome P450 2E1) | IC50 [7] | Ki [7]

COc1ccc(/C=C/C(=O)Nc2ccccc2C(=O)O)cc1OC
Not Active: IC50 [1] | Ki [1] | IC50 (Substance-P receptor) | IC50 [2] | IC50 [3] | Ki [3] | IC50 [4] | Ki [4] | IC50 [5] | IC50 (Melanocortin receptor 3) | IC50 [6] | IC50 (Cytochrome P450 2E1) | Ki (Cytochrome P450 2E1) | IC50 [7] | Ki [7]
